Reference: US20060013871A1 (priority 2003, published 2006)

Experiment: Particle size analysis in water suspension, Beckman LS230
Format: physicochemical
Conditions: feedstock of Example 5, water suspension, Beckman Coulter LS230
Protocol: The vessel was charged with 405 g of CO2. The agitator rpm was 1,776. The mixing process was run for 1 hr. The final temperature and pressure were 28° C. and 1,434 psig, respectively.
Particle size analysis was done in water suspension using Beckman LS230, however it is known that in an aqueous medium Poloxamer is likely to dissolve.

Question: Which “d16 particle size of feedstock” value does the source give for `CC(C)Cc1ccc(C(C)C(=O)O)cc1` (stereo not drawn) [Ibuprofen] here?
Answer: 21.8 micron

Question: And the “d50 particle size of feedstock” value?
Answer: 41.21 microns

Question: And the “d84 particle size of feedstock” value?
Answer: 71.05 microns
